Experimental data reported in patent US20130183239A1, “ISOTOPIC CARBON CHOLINE ANALOGS” (IMPERIAL COLLEGE, priority 2010, published 2013).

Tests used:
[1] = mouse, in vivo
Experimental: Radiolabeled metabolites from plasma and tissues were quantified using a method adapted from Smith G, Zhao Y, Leyton J, et al. Radiosynthesis and pre-clinical evaluation of [(18)F]fluoro-[1,2-(2)H(4)]choline. Nucl Med Biol. 2011; 38:39-51. Briefly, tumor-bearing mice under terminal anaesthesia were administered a bolus i.v. injection of one of the following radiotracers: ^11C-choline, ^11C-D4-choline (˜18.5 MBq) or ^18F-D4-choline (˜3.7 MBq), and sacrificed by exsanguination via cardiac puncture at 2, 15, 30 or 60 min post radiotracer injection. For automated radiosynthesis methodology, see Example 22. Tumor, kidney and liver samples were immediately snap-frozen in liquid nitrogen. Aliquots of heparinized blood were rapidly centrifuged (14000 g, 5 min, 4° C.) to obtain plasma. Plasma samples were subsequently snap-frozen in liquid nitrogen and kept on dry ice prior to analysis.
For analysis, samples were thawed and kept at 4° C. immediately before use. To ice cold plasma (200 μl) was added ice cold methanol (1.5 mL) and the resulting suspension centrifuged (14000 g; 4° C.; 3 min). The supernatant was then decanted and evaporated to dryness on a rotary evaporator (bath temperature, 40° C.), then resuspended in HPLC mobile phase (Solvent A: acetonitrile/water/ethanol/acetic acid/1.0 M ammonium acetate/0.1 M sodium phosphate [800/127/68/2/3/10]; 1.1 mL). Samples were filtered through a hydrophilic syringe filter (0.2 μm filter; Millex PTFE filter, Millipore, Mass., USA) and the sample (˜1 mL) then injected via a 1 mL sample loop onto the HPLC for analysis. Tissues were homogenized in ice-cold methanol (1.5 mL) using an Ultra-Turrax T-25 homogenizer (IKA Werke GmbH and Co. KG, Staufen, Germany) and subsequently treated as per plasma samples.
Samples were analyzed on an Agilent 1100 series HPLC system (Agilent Technologies, Santa Clara, Calif., USA), configured as described above, using the method of Leyton J, Smith G, Zhao Y, et al. [18F]fluoromethyl-[1, 2-2H4]-choline: a novel radiotracer for imaging choline metabolism in tumors by positron emission tomography. Cancer Res. 2009; 69:7721-7728. A μBondapak C18 HPLC column (Waters, Milford, Mass., USA; […]), stationary phase and a mobile phase comprising of Solvent A (vide supra) and Solvent B (acetonitrile/water/ethanol/acetic acid/1.0 M ammonium acetate/0.1 M sodium phosphate (400/400/68/44/88/10)), delivered at a flow rate of 3 mL/min were used for analyte separation. The gradient was set as follows: 0% B for 5 min; 0% to 100% B in 10 min; 100% B for 0.5 min; 100% to 0% B in 2 min; 0% B for 2.5 min.
(§1) A 2-tissue irreversible compartmental model was employed to fit the TACs, as has been previously established for ^11C-choline (Kenny L M, Contractor K B, Hinz R, et al. Reproducibility of [11C]choline-positron emission tomography and effect of trastuzumab. Clin Cancer Res. Aug. 15 2010; 16(16):4236-4245; and Sutinen E, Nurmi M, Roivainen A, et al. Kinetics of [(11)C]choline uptake in prostate cancer: a PET study. Eur J Nucl Med Mol. Imaging. March 2004; 31(3):317-324). An estimate of the whole blood TAC (wbTAC(t)) was derived from the PET image itself, as described above. […] Therefore it was fitted with a sum of 3 exponentials from the peak on and the fitted function was used as input function in the kinetic modeling (after metabolite correction, see below). […] The pf values were fitted to a sum of two exponentials with the constraint pf(t=0)=1 to obtain the function pf(t).

HCT116 tumors = tested on: HCT116 tumors; set-up: AUC: unit not given beside the values
Experimental: Dynamic ^11C-choline, ^11C-D4-choline and ^18F-D4-choline imaging scans were carried out on a dedicated small animal PET scanner (Siemens Inveon PET module, Siemens Medical Solutions USA, Inc., Malvem, Pa., USA) following a bolus i.v. injection in tumor-bearing mice of either ˜3.7 MBq for ^18F studies, or ˜18.5 MBq for ^11C. Dynamic scans were acquired in list mode format over 60 min. The acquired data were then sorted into 0.5 mm sinogram bins and 19 time frames for image reconstruction (4×15 s, 4×60 s, and 11×300 s), which was done by filtered back projection. For input function analysis, data were sorted into 25 time frames for image reconstruction (8×5 s, 1×20 s, 4×40 s, 1×80 s, and 11×300 s). The Siemens Inveon Research Workplace software was used for visualization of radiotracer uptake in the tumor; 30 to 60 min cumulative images of the dynamic data were employed to define 3-dimensional (3D) regions of interest (ROIs). Arterial input function was estimated as follows: a single voxel 3D ROI was manually drawn in the center of the heart cavity using 2 to 5 min cumulative images. Care was taken to minimize ROI overlap with the myocardium. The count densities were averaged for all ROIs at each time point to obtain a time versus radioactivity curve (TAC). Tumor TACs were normalized to injected dose, measured by a VDC-304 dose calibrator (Veenstra Instruments, Joure, The Netherlands), and expressed as percentage injected dose per mL tissue. The area under the TAC, calculated as the integral of % ID/mL from 0-60 min, and the normalized uptake of radiotracer at 60 min (% ID/mL60) were also used for comparisons.
as §1, with “pf(t). The parent whole blood TAC wbTACPAR(t) was then computed by multiplying wbTAC(t) and pf(t) and used as input function to estimate the parameters K1 (mL/cm^3/min), k2 (1/min), k3 (1/min) and Vb (unitless). The steady state net irreversible uptake rate constant Ki (mL/cm^3/min) was calculated from the estimated microparameters as K1k3/(k2+k3).” for “pf(t).”

[2] = HCT116 tumors, two-tissue irreversible model, n=3
[3] = HCT116 tumors, 2-tissue irreversible model

**Q.** For `[2H]C([2H])(O)C([2H])([2H])[N+](C)(C)C[18F]` [[^18F]D4-FCH, [^18F]fluoromethyl-[1,2-^2H4]-choline], which “liver radioactivity as betaine” value [1] is on record?
**A.** 15.0±3.6%

**Q.** What about the “liver radioactivity present as phosphocholine” value [1] of the same compound?
**A.** ~80%

**Q.** What about the “plasma radioactivity in the form of betaine” value [1] of the same compound?
**A.** 43.7±12.4%

**Q.** And the “resistance to oxidation in the kidney” value [1]?
**A.** more resistant to oxidation

**Q.** And the “tumor tracer kinetics between 30 and 60 min” value (HCT116 tumors; HCT116 tumors, dynamic PET)?
**A.** Slow wash-out of activity

**Q.** And the “decrease in Ki compared to 11C-D4-choline” value (HCT116 tumors; [2])?
**A.** 49.2%

**Q.** What about the “decrease in k3 compared to 11C-D4-choline” value (HCT116 tumors; [2]) of the same compound?
**A.** 75.2%

**Q.** What about the “K1′” value (HCT116 tumors; [3]) of the same compound?
**A.** 0.142 ± 0.027

**Q.** What about the Ki (HCT116 tumors; [3]) of the same compound?
**A.** 0.008 ± 0.001 mL/cm^3/min

**Q.** And the k3 (HCT116 tumors; [3])?
**A.** 0.039 ± 0.003 min⁻¹

**Q.** And the AUC (HCT116 tumors; mouse, in vivo)?
**A.** 114.5 ± 7.0

**Q.** What about the NUV60 (HCT116 tumors; mouse, in vivo) of the same compound?
**A.** 1.81 ± 0.11 % ID/mL

**Q.** And the “tumor radiotracer uptake by PET” value (HCT116 tumors; mouse, in vivo)?
**A.** no higher
